The values that follow come from US6653309B1, “Inhibitors of IMPDH enzyme technical field of the invention” (Vertex Pharmaceuticals Incorporated, priority 1999, dated 2003).

A value given as a limit tells only on which side of the number the result lay.

The Ki is a measure of affinity in units of concentration, obtained from inhibition or displacement. A high value points to weaker binding.

This test addresses IMPDH human type II (Homo sapiens, UniProt P12268). In words: IMPDH Activity Inhibition Assay. The test is classed as biochemical. The conditions noted are these: spectrophotometric NADH formation at 340 nm, 37° C., tight-binding equation of Henderson. The method, then:
IMP dehydrogenase activity was assayed following an adaptation of the method first reported by Magasanik. [B. Magasanik et al., J. Biod. Chem., 226, p. 339 (1957), the disclosure of which is herein incorporated by reference]. Enzyme activity was measured spectrophotometrically, by monitoring the increase in absorbance at 340 nm due to the formation of NADH (ε340 is 6220 M^−1 cm^−1). The reaction mixture contained 0.1 M Tris pH 8.0, 0.1 M KCl, 3 mM EDTA, 2 mM DTT, […] and enzyme (IMPDH human type II) at a concentration of 15 to 50 nM. This solution is incubated at 37° C. for 10 minutes. The reaction is started by adding NAD to a final concentration of […] and the initial rate is measured by following the linear increase in absorbance at 340 nm for 10 minutes. For reading in a standard spectrophotometer (path length 1 cm) the final volume in the cuvette is 1.0 ml. The assay has also been adapted to a 96 well microtiter plate format; in this case the concentrations of all the reagents remain the same and the final volume is decreased to 200 μl.
For the analysis of inhibitors, the compound in question is dissolved in DMSO to a final concentration of 20 mM and added to the initial assay mixture for preincubation with the enzyme at a final volume of 2-5% (v/v). The reaction is started by the addition of NAD, and the initial rates measured as above. Ki determinations are made by measuring the initial, velocities in the presence of varying amounts of inhibitor and fitting the data using the tight-binding equation of Henderson (Henderson, P. J. F. (1972) Biochem. J. 127, 321].
As to `O=S(=O)(Nc1ccc(-c2cnco2)cc1)c1ccccc1` [Compound 301], the inhibitory constant (Ki) fell in the range of 10 to 20 µM. With `COc1ccccc1NS(=O)(=O)c1ccc2ccccc2c1` [Compound 302] the figure was 10 to 20 µM. Compound `O=C(Nc1ccc(F)cc1)Sc1ccccc1O` [Compound 303] displayed a Ki of more than 20 µM. The figure for `O=C(Nc1cccnc1)c1cc2ccccc2cc1O` [Compound 304] is more than 20 µM. The figure for `COc1cc(Cl)ccc1NC(=O)Sc1ccccc1O` [Compound 305] is less than 10 µM; for `COc1ccc(C)cc1NC(=O)Sc1ccccc1O` [Compound 306] it is 10 to 20 µM. The figure for `COc1ccc(OC)c(S(=O)(=O)Nc2cccc([N+](=O)[O-])c2)c1` [Compound 307] is 10 to 20 µM; for `COc1ccc(OC)c(S(=O)(=O)Nc2ccc([N+](=O)[O-])cc2)c1` [Compound 308] it is 10 to 20 µM; for `COc1ccc(OC)c(S(=O)(=O)Nc2cccc(C#N)c2)c1` [Compound 309] it is 10 to 20 µM. The compound `COc1ccc(OC)c(S(=O)(=O)Nc2ccc(C#N)cc2)c1` [Compound 310] gave a Ki of 10 to 20 µM.

Consider `COc1cccc(OC)c1S(=O)(=O)Nc1ccc(C(C)(C)C)cc1` [Compound 311], for which the Ki was 10 to 20 µM. The figure for `COc1ccc(OC)c(S(=O)(=O)Nc2ccccc2C#N)c1` [Compound 312] is 10 to 20 µM; for `COc1ccc(OC)c(S(=O)(=O)Nc2cccc(Br)c2)c1` [Compound 313] it is 10 to 20 µM; for `COc1ccc(OC)c(S(=O)(=O)NCc2c(F)cccc2Cl)c1` [Compound 314] it is 10 to 20 µM.

On to `COc1ccc(OC)c(S(=O)(=O)Nc2ccccc2Cl)c1` [Compound 315], for which the Ki was in the range of 10 to 20 µM. With `COc1ccc(OC)c(S(=O)(=O)Nc2ccc(-c3ncon3)cc2)c1` [Compound 316] the figure was 10 to 20 µM; with `COc1ccc(OC)c(S(=O)(=O)Nc2ccccc2[N+](=O)[O-])c1` [Compound 317], 10 to 20 µM. For the compound `COc1ccc(Br)cc1S(=O)(=O)Oc1cc2ccccc2cc1N` [Compound 318], the Ki lay within 10 to 20 µM. The figure for `COc1ccc(Br)cc1S(=O)(=O)Nc1cc2ccccc2cc1O` [Compound 319] is 10 to 20 µM; for `COc1ccc(OC)c(S(=O)(=O)Nc2cccc(Cl)c2)c1` [Compound 320] it is 10 to 20 µM; for `COc1ccccc1NS(=O)(=O)c1cc(Cl)cc(Cl)c1O` [Compound 321] it is 10 to 20 µM.

In turn, `COc1ccccc1NS(=O)(=O)c1ccccc1O` [Compound 322] had a Ki of 10 to 20 µM. With `COc1ccc(Br)cc1S(=O)(=O)Nc1ccccc1O` [Compound 323] the figure was 10 to 20 µM. The figure for `COc1ccccc1S(=O)(=O)Nc1ccccc1O` [Compound 324] is 10 to 20 µM. With `COc1cc(NC(=O)Cc2cccc(CNC(=O)O[C@H]3CCOC3)c2)ccc1-c1cnco1` [Compound 325] the figure was less than 10 µM. In turn, `COc1cc(NC(=O)Oc2cccc(CNC(=O)O[C@H]3CCOC3)c2)ccc1-c1cnco1` [Compound 326] showed a Ki of less than 10 µM.
